Consider five compounds from ChEMBL document CHEMBL3272227, “Conformationally restricted analogs of histamine H1 receptor antagonists: trans and cis-1-benzyl-3-dimethylamino-6-phenylpiperidine” (J Med Chem, 1976).

The structures appear in SMILES notation. The source made the active and inactive calls. No cut-off for these calls is given here.

For experiment [1], the system named is Ileum. Put plainly: Inhibition of acetylcholine-induced contraction in guinea pig ileum at 0.1 uM treated for 15 mins prior to acetylcholine challenge. Format: functional, tissue-based. To be noted: Cavia porcellus.
The target in experiment [2] is Histamine H1 receptor (Cavia porcellus) (UniProt P31389). Put plainly: Antagonist activity at histamine H1 receptor in guinea pig ileum assessed as inhibition of histamine-induced contraction at 0.1 uM treated for 15 mins prior to histamine challenge. The experiment is classed as tissue-based.
Experiment [3] has the same target. The experiment is described as follows: Antagonist activity at histamine H1 receptor in guinea pig ileum assessed as inhibition of histamine-induced contraction treated for 15 mins prior to histamine challenge. The experiment is classed as tissue-based.
Experiment [4] deals with Ileum. Put plainly: Inhibition of acetylcholine-induced contraction in guinea pig ileum treated for 15 mins prior to acetylcholine challenge. Format: functional. To be noted: Cavia porcellus, read-out: ED50 (the source's name).
Experiment [5] concerns the target Histamine N-methyltransferase (Cavia porcellus, UniProt Q9EST2). Put plainly: Inhibition of histamine N-methyltransferase in guinea pig brain using S-adenosyl-L-methionine-14C as substrate by scintillation spectrophotometer.
The test system of experiment [6] is Ileum. Put plainly: Inhibition of barium chloride-induced contraction in guinea pig ileum at 5 uM. The experiment is classed as functional. To be noted: Cavia porcellus.
The target of experiment [7] is Histamine H1 receptor (Cavia porcellus) (UniProt P31389). The experiment is described as follows: Antagonist activity at histamine H1 receptor in guinea pig ileum assessed as inhibition of histamine-induced contraction at 50 nM treated for 15 mins prior to histamine challenge. The experiment is classed as tissue-based.
In experiment [8] the test system is Ileum. Put plainly: Inhibition of barium chloride-induced contraction in guinea pig ileum at 2 uM. Format: functional. The conditions noted are these: Cavia porcellus.
The target in experiment [9] is Histamine H1 receptor (Cavia porcellus) (UniProt P31389). Put plainly: Antagonist activity at histamine H1 receptor in guinea pig ileum assessed as inhibition of histamine-induced contraction at 10 nM treated for 15 mins prior to histamine challenge. Format: tissue-based.

Histamine H1 receptor (Cavia porcellus), sequence (P31389 whole entry): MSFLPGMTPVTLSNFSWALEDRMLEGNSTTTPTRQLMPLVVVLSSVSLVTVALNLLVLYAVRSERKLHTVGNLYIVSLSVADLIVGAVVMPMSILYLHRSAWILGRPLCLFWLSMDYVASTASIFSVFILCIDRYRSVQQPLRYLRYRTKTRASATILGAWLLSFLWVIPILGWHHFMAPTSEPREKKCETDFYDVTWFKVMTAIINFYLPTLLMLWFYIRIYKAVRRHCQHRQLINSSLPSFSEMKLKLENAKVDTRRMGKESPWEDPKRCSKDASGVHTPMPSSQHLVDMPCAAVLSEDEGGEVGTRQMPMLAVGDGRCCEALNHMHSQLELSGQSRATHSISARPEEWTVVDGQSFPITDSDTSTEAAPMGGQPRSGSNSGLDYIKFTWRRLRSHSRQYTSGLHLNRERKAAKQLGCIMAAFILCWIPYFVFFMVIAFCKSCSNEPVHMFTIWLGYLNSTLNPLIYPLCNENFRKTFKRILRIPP
Histamine N-methyltransferase, sequence (Q9EST2 whole entry): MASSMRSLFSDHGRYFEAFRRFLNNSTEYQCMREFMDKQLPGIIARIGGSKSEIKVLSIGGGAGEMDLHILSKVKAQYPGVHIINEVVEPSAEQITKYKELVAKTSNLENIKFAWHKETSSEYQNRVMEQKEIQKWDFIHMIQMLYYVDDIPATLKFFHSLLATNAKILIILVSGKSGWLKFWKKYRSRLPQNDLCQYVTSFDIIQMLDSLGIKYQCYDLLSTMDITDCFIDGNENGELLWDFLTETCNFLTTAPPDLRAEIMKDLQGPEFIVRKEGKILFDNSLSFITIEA

On to `CN(C)CCN(Cc1ccccc1)c1ccccn1`, for which the inhibition entry in experiment [1] is “inactive”. The inhibition in experiment [2] was 66%.

As for `CN(C)[C@H]1CC[C@H](c2ccccc2)N(Cc2ccccc2)C1` (relative stereo), the ED50 in experiment [3] came out at 6.72 µM. Moreover, the EC50 in experiment [4] was 2.9 µM. The compound further showed a Ki in experiment [5] of 247 µM. Moreover, testing at 5 µM in experiment [6] gave an inhibition of 39%.

With `CN(C)[C@@H]1C[C@H](c2ccccc2)N(c2ccccc2)C1` (relative stereo), the inhibition in experiment [7] stood at 45%.

As to `CN(C)[C@@H]1CC[C@H](c2ccccc2)N(Cc2ccccc2)C1` (relative stereo), the ED50 in experiment [3] was 1.83 µM. Moreover, the EC50 in experiment [4] was found to be 1.45 µM. In experiment [5], this compound returned a Ki of 31.6 µM. The inhibition at 2 µM in experiment [8] came out at 50%.

As for `CN(C)[C@H]1C[C@H](c2ccccc2)N(c2ccccc2)C1` (relative stereo), in experiment [9], the inhibition was determined as 85%.
